Assay results reported in article PMC4578755, “Development of novel cellular histone-binding and chromatin-displacement assays for bromodomain drug discovery” (Epigenetics & Chromatin, 2015).

Tests used:
[1] = tested on: FLAG-tagged BRD4 in HeLa cells; assay: In situ cell extraction with IF, BRD4 displacement from chromatin; format: cell-based; conditions: for IF signal for histone H3: HeLa FLAG-BRD4, two-color staining
[2] = tested on: SMARCA2; parameters: method as in PMID 26139243; conditions: cited from earlier work
[3] = molecular target: T1, FLAG-tagged BRD4 in HeLa cells (Homo sapiens, UniProt O60885); assay: In situ cell extraction with IF, BRD4 displacement from chromatin; format: cell-based; conditions: HeLa FLAG-BRD4, 96-well, IF
T1 construct: expressed in transfected cells; host or cells: HeLa

[4] = tested on: histone H3K23Ac mark in HeLa cells; assay: H3K23 acetylation in HeLa cells (Western blot, anti-H3K23Ac immunostaining); format: cell-based; conditions: HDAC inhibitor treatment, 2 µM, 2 h; Western blot
Experimental: Standard IF procedures were used. Briefly, cells were permeabilized (0.5 % Triton X-100 in PBS) for 15 min and incubated with blocking solution (DAKO #X0909) for 30 min. The following primary antibodies were used: goat anti-V5 (Bethyl #A190-119A) 1:200; mouse anti-FLAG (Sigma #F1804) 1:200; rabbit anti-BRD4 (Abcam #ab128874) 1:200; rabbit anti-TRIM24 (Proteintech #14208-1-AP) 1:400; rabbit anti-K3K23Ac (Cell Signaling #8848) 1:200, and mouse anti-histone H3 (Active Motif #39763) 1:4000. Alexa Fluor-conjugated secondary antibodies were from Invitrogen and Hoechst 33342 (Invitrogen, #H3570) was used for nuclei counterstaining (10 µg/ml). For each Alexa fluorochrome, images (4–10 fields per well; 20X magnifications) were acquired using the Operetta High-Content Screening System (PerkinElmer). Image analysis was performed in Harmony software (PerkinElmer) by selecting nuclei and cytoplasm in Hoechst channel. Gating for single cells of flat morphology was done based on nuclei area, roundness and intensity of Hoechst in the nucleus and in the cytoplasm. In every gated cell, the mean signal intensity value for each fluorochrome was calculated separately in nucleus and cytoplasm. The specific nuclear signal was estimated subtracting mean cytoplasmic value from nuclear; and average value was calculated using at least 1000 cells in each well.

[5] = molecular target: biotinylated H3K23Ac peptide (N-terminal residues 1-33 of histone H3); assay: AlphaScreen or HTRF; AlphaScreen; biotinylated H3K23Ac peptide in excess (1 µM), indicated amounts of His-TRIM24 WT or N980A; streptavidin donor beads and Ni-NTA acceptor beads
[6] = molecular target: biotinylated H3K23Ac peptide (N-terminal residues 1-33 of histone H3); assay: AlphaScreen or HTRF; AlphaScreen optimisation matrix of TRIM24 protein and peptide (twofold dilution series); final conditions 5 nM TRIM24 and 15 nM peptide; Buffer B (50 mM Hepes pH 7.4, 100 mM NaCl, 0.1 % BSA, 0.05 % Chaps), room temperature
[7] = molecular target: FLAG-TRIM24-PHD-Bromo-V5 (isolated PHD-bromodomain, residues 810-1050) (human) (UniProt O15164); assay: proximity ligation; HeLa TRIM24-PB cells, fixed; goat anti-V5 and mouse anti-histone H3 antibody pair; with and without SAHA (5 µM, 2 h)
[8] = molecular target: FLAG-TRIM24-PHD-Bromo-V5 (isolated PHD-bromodomain, residues 810-1050) (human) (UniProt O15164); assay: AlphaScreen or HTRF; AlphaLISA on lysates of HeLa TRIM24-PB cells pretreated with SAHA or DMSO; anti-FLAG or anti-V5 acceptor beads, biotinylated anti-histone H3 antibody, streptavidin donor beads; histone extraction buffer diluted in water

Chain of biotinylated H3K23Ac peptide (N-terminal residues 1-33 of histone H3) (peptide, as listed by the source): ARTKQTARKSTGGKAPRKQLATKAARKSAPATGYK

Cc1sc2c(c1C)C(c1ccc(Cl)cc1)=N[C@@H](CC(=O)OC(C)(C)C)c1nnc(C)n1-2 [JQ1]
IF signal for histone H3 [1]: unaffected | Time to decrease in BRD4 bromodomain binding to chromatin ([1]; JQ1 1 µM, HeLa expressing FLAG-tagged bromodomain of BRD4): ≤ 5 min

O=C(/C=C/N1C[C@H]2C[C@@H]1CN2c1ccccn1)c1ccccc1O [PFI-3]
Displacement of endogenous full-length SMARCA2 protein from chromatin [2]: fails to displace | Displacement of isolated GFP-tagged SMARCA2 bromodomain from chromatin ([2]; engineered cells): can displace

COc1cc(OC)c2c(=O)[nH]c(-c3cc(C)c(OCCO)c(C)c3)nc2c1 [RVX-208]
Displacement of BRD4 from chromatin [3]: partial displacement

CC(/C=C/C(=O)NO)=C\[C@@H](C)C(=O)c1ccc(N(C)C)cc1 [TSA, Trichostatin A]
Cellular histone H3K23Ac mark [4]: hyperacetylated

His-tagged TRIM24 PHD-bromodomain, wild type (domain or fragment)
AlphaScreen signal to background (S/B) [5]: > 250 | AlphaScreen S/B at 5 nM TRIM24 and 15 nM peptide [6]: 432

I-BET 151
IF signal for histone H3 [1]: unaffected

endogenous histone H3 (from UniProt P68431 1-136) (natural protein)
fold increase of the PLA signal with SAHA against no SAHA [7]: > 3 fold | AlphaLISA S/B (FLAG-acceptor beads, histone extraction buffer diluted 1:10) [8]: 50 fold | AlphaLISA S/B (FLAG-acceptor beads, histone extraction buffer replaced by water) [8]: 20 | AlphaLISA S/B (V5-acceptor beads) [8]: 14 fold | AlphaLISA S/B (final 384-well protocol, 26 plates) [8]: 30
